Measured values: US20100168054A1, “Functionalized Beta 1,6 Glucosamine Disaccharides and Process for Their Preparation” (OM PHARMA, priority 2006, published 2010)
“Also recorded” adds a separate entry of the source.

How the values were obtained:
TLR2 = molecular target: T1, TLR2 (Homo sapiens, UniProt O60603); experiment: HEK-TLR2 IL-8 secretion; assay type: cell-based; conditions: for IL-8 secretion, mean: 24 h; for activation of IL-8 secretion via TLR2 (in words): HEK-TLR2
T1 construct: host or cells: HEK293
Source text: The HEK293 cell line was chosen for its null or low basal expression of the TLR genes. These cells enable efficient monitoring of TLR activity using ELISA analysis such as IL-8 titration or reporter-based systems that monitor TLR-induced NF-κB activation. HEK-TLR2 cells (Invivogen, Toulouse, France) are engineered HEK293 cells stably transfected with multiple genes from the TLR2 pathway that include TLR2 and genes participating in the recognition or involved in the signaling cascade. These cells secrete IL-8 after TLR2 stimulation. The experiments were performed according to manufacturers' instructions. Briefly, 2×10^4 cells/well (200 ul RPMI) are incubated at 37° C. during 3 days (5% CO2). The medium is removed, and 90 ul RPMi+5% FCS is added to the wells Then the agonists and controls are added (10 ul/well). The cells return to the incubator for 24 hours. The supernatants are collected and the IL-8 ELISA is performed according to manufacturer's instructions

rat mast cells = experiment: Histamine secretion (compound 48/80-stimulated); assay type: cell-based; conditions: Rattus norvegicus, Mast cell, 2 min, compound 48/80 0.1 μg/ml, 37° C., read-out: IC50
Source text: Using an in vitro rat model of mast cell degranulation (proposed by the CRO CEREP, catalog number 2006: 771-c), we aimed to investigate whether the synthetic molecules OM-174-DP (compound 1b) OM-174-MP-PD (19), OM-174-MP-EP (33), OM-174-MP-CM (35c) and OM-174-MP-PR (17) would inhibit histamine secretion by compound 48/80-stimulated mastocytes. The protocol used is briefly summarized below:
The results are expressed as a percent of control specific activity ((measured specific activity/control specific activity)×100) obtained in the presence of the test compounds. The IC50 values (concentration causing a half-maximal inhibition of control specific activity) were determined by non-linear regression analysis of the inhibition curves generated with mean replicate values using Hill equation curve fitting (Y=D+[(A−D)/(1+(C/C50)nH)], where Y=specific activity, D=minimum specific activity, A=maximum specific activity, C=compound concentration, C50=IC50, and nH=slope factor). This analysis was performed using a software developed at Cerep (Hill software) and validated by comparison with data generated by the commercial software SigmaPlot® 4.0 for Windows® (© 1997 by SPSS Inc.).
In each experiment, the reference compound was tested concurrently with the test compounds in order to assess the assay suitability. It was tested at several concentrations (for IC50 value determination), and the data were compared with historical values determined at CEREP. The assay was rendered valid if the suitability criteria were met, in accordance with the corresponding Standard Operating Procedure.

[1] = tested on: human peripheral blood mononuclear cells (PBMC); experiment: IL-6 secretion by human PBMC (ELISA); assay type: cell-based; conditions: for IL6: 24 h; for IL-6 secretion (in words): 1, 5, 20 μg/ml
Experimental: Peripheral blood from healthy donors (Centre de transfusion, Hôpital Universitaire, Geneva) was centrifuged to get the buffy coat. The buffy coat was mixed with Hanks' balanced saline solution (HBSS, Sigma, Buchs, Switzerland), layered over Ficoll Paque Plus (Amersham Pharmacia) to 1.077 g/mL and centrifuged (2800 rpm, 20° C., 25 min). Cells harvested from the interphase were washed twice in HBSS at 800 rpm for 15 min at room temperature and the pelleted cells were resuspended in HBSS. The cell counts were performed using a Neubauer cell. All cell cultures were performed in RPMI-1640 medium supplemented with penicillin (100 U/mL), streptomycin (100 μg/mL), L-glutamine (2 mmol/L) and 10% fetal calf serum (FCS), all obtained from Sigma. For in vitro stimulation, the cells were cultured at a concentration of 1×10^6 viable cells/well.
PBMC were incubated at 37° C. and under 5% CO2 atmosphere with the controls (see below) and with the products of the invention at 1, 5, and 20 μg/mL for IL-6, and at 0.2, 2, and 20 μg/mL for TNF-α secretion. Medium: RPMI alone.
The surpernatants of the cultures were harvested after 24 h and the concentration of IL-6 and TNF-α were measured by an enzyme-linked immunosorbent assay (ELISA) (Human IL-6 and TNF-α ELISA Set, BD OptEIA, San Diego, USA), according to the manufacturer instructions. The detection limits were 10 and 8 pg/mL respectively.
PBMC are incubated at 37° C. and under 5% CO2 atmosphere with the products of the invention.
The supernatants of the cultures are harvested after 24 h and the concentration of IL-6 was measured by an enzyme-linked immunosorbent assay (ELISA) (Human IL-6 ELISA Set, BD OptEIA, San Diego, USA), according to the manufacturer instructions. The detection limit was 10 pg/mL.

murine macrophages = experiment: Nitric oxide production by murine macrophages (Griess reaction); assay type: cell-based, C57/BL6 mice; conditions: 22 h
Source text: Experimental assay of nitric oxide production by murine macrophages: Six-week old male C57/BL6 mice (six weeks old male, SPF quality, Charles Rivier, FR) were killed by CO2 inhalation. The hip, femur, and tibia from the posterior appendage were removed. The bone marrow was extracted from the lumen by injecting Dulbecco's Modified Eagle Medium (DH) through the bone after cutting both end portions. After washing, the stem cells were resuspended (40'000 cells/mL) in DH medium supplemented with 20% horse serum and 30% L929 cell supernatant. The cell suspension is incubated for 8 days in an incubator at 37° C. under 8% CO2 and moisture-saturated atmosphere. Macrophages are then detached with ice-cold PBS, washed and resuspended in DH medium supplemented with 5% fetal calf serum (FCS), amino acids and antibiotics (DHE medium). The cell density is adjusted to 700′000 cells/mL. Aqueous solutions of the products are serially diluted in DHE medium directly in microtiter plates. The products are tested in triplicates and each microtiter plate comprises a negative control composed of medium. The final volume in each well is […]. 100 μL of the cell suspension are added to the diluted products and the cells are incubated for 22 h in an incubator at 37° C., under 8% CO2 and a moisture-saturated atmosphere. At the end of the incubation period, 100 μL of supernatant are transferred to another microtiter plate and the nitrite concentration produced in each supernatant is determined by running a Griess reaction. 100 μL of Griess reagent (5 mg/mL of sulfanilamide+0.5 mg/mL of N-(1-naphtyl)ethylene-diamine hydrochloride) in 2.5% aqueous phosphoric acid, are added to each well. The microtiter plates are read with a spectrophotometer (SpectraMax Plus, Molecular Devices) at 562 nm against a reference at 690 nm. The nitrite concentration is proportional to nitric oxide content being formed. The nitrite content is determined based on a standard curve. The results are given as mean value±standard deviation and plotted as a dose response curve.

T1 sequence (O60603 21-784): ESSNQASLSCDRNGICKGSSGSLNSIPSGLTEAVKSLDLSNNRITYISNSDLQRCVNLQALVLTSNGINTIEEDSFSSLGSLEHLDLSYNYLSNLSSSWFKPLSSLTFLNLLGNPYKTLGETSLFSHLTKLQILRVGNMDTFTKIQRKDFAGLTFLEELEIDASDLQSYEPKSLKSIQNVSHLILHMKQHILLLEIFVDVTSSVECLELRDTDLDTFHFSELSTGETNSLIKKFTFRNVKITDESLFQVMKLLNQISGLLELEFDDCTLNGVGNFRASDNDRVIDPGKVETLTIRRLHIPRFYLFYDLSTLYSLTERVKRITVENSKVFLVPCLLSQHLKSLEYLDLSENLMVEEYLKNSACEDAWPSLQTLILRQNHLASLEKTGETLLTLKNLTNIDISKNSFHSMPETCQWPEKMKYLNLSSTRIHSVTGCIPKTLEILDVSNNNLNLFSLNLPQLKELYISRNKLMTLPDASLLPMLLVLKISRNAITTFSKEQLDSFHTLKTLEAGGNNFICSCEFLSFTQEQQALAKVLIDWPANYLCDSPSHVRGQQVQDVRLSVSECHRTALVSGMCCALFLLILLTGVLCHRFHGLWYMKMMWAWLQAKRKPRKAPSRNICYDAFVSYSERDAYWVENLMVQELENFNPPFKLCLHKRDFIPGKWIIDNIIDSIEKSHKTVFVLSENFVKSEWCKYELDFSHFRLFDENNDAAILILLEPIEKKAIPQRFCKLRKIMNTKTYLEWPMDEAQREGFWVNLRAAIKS

Row | Structure (SMILES) | IL-8 secretion, mean (TLR2; 14 ng/ml) | IL-8 secretion, mean (TLR2; 41 ng/ml) | IL-8 secretion, mean (TLR2; 124 ng/ml) | IL-8 secretion, mean (TLR2; 370 ng/ml) | IL-8 secretion, mean (TLR2; 1111 ng/ml) | IL-8 secretion, mean (TLR2; 3333 ng/ml) | IL-8 secretion, mean (TLR2; 10000 ng/ml) | activation of IL-8 secretion via TLR2 (in words) (TLR2) | IC50 (rat mast cells) | IL6 ([1]; 1 μg/ml) | IL6 ([1]; 5 μg/ml) | IL6 ([1]; 20 μg/ml) | IL-6 secretion (in words) [1] | nitric oxide production (in words), FIG. 25 (murine macrophages) | IL-6 induced ([1]; up to, doses to 20 μg/ml) | dose from which active (nitric oxide production) (murine macrophages)
1 | CCCCCCCCCCCC(=O)O[C@H](CCCCCCCCCCC)CC(=O)N[C@H]1[C@H](OC[C@H]2O[C@H](O)[C@H](NC(=O)C[C@H](O)CCCCCCCCCCC)[C@@H](O)[C@@H]2O)O[C@H](CO)[C@@H](OP(=O)(O)O)[C@@H]1O [compound 16, 2-Deoxy-6-O-[2-deoxy-4-O-(dihydroxyphosphoryl)-2-[(R)-3-dodecanoyloxytetradecanoylamino]-β-D-glucopyranosy]-2-[(R)-3-hydroxytetradecanoylamino]-α-D-glucopyranose] | 0.07 pg/mL | 0.09 pg/mL | 0.15 pg/mL | 0.12 pg/mL | 0.15 pg/mL | 0.19 pg/mL | 0.27 pg/mL |  |  | 81.1 pg/mL | 473.3 pg/mL | 1348.2 pg/mL | able to induce IL-6 secretion | able to induce high levels of nitric oxide | up to 1348 μg/ml | 
2 | CCCCCCCCCCCC(=O)O[C@H](CCCCCCCCCCC)CC(=O)N[C@H]1[C@H](OC[C@H]2O[C@H](OCC(O)CO)[C@H](NC(=O)C[C@H](O)CCCCCCCCCCC)[C@@H](O)[C@@H]2O)O[C@H](CO)[C@@H](OP(=O)(O)O)[C@@H]1O (stereo partly drawn) [compound 19, 2,3-Dihydroxypropyl-2-Deoxy-6-O-[2-deoxy-4-O-(dihydroxyphosphoryl)-2-[(R)-3-dodecanoyloxytetradecanoylamino]-β-D-glucopyranosyl]-2-[(R)-3-hydroxytetradecanoylamino]-α-D-glucopyranoside] | 0.06 pg/mL | 0.15 pg/mL | 0.16 pg/mL | 0.20 pg/mL | 0.27 pg/mL | 0.37 pg/mL | 0.62 pg/mL |  | 160 nM | 44.5 pg/mL | 95.9 pg/mL | 199.1 pg/mL | able to induce IL-6 secretion | able to induce high levels of nitric oxide |  | ≥ 0.01 µg/mL
3 | CCCCCCCCCCCC(=O)O[C@H](CCCCCCCCCCC)CC(=O)NC1C(OCC2OC(OP(=O)(O)O)C(NC(=O)C[C@H](O)CCCCCCCCCCC)C(O)C2O)OC(CO)C(OP(=O)(O)O)C1O (stereo partly drawn) [compound 1b, 2-Deoxy-6-O-[2-deoxy-4-O-(dihydroxyphosphoryl)-2-[(R)-3-dodecanoyloxytetradecanoylamino]-β-D-glucopyranosyl]-2-[(R)-3-hydroxytetradecanoylamino]-α-D-glucopyranosyl dihydrogenophosphate] |  |  |  |  |  |  |  |  | 86 nM | 20.2 pg/mL | 57.1 pg/mL | 225.5 pg/mL | higher levels of IL-6; also recorded: able to induce IL-6 secretion |  |  | 

Now from value to compound, other results behind:

Row | IL-8 secretion, mean (TLR2; 14 ng/ml) | IL-8 secretion, mean (TLR2; 41 ng/ml) | IL-8 secretion, mean (TLR2; 124 ng/ml) | IL-8 secretion, mean (TLR2; 370 ng/ml) | IL-8 secretion, mean (TLR2; 1111 ng/ml) | IL-8 secretion, mean (TLR2; 3333 ng/ml) | IL-8 secretion, mean (TLR2; 10000 ng/ml) | activation of IL-8 secretion via TLR2 (in words) (TLR2) | Structure (SMILES) | IC50 (rat mast cells) | IL6 ([1]; 1 μg/ml) | IL6 ([1]; 5 μg/ml) | IL6 ([1]; 20 μg/ml) | IL-6 secretion (in words) [1] | nitric oxide production (in words), FIG. 25 (murine macrophages) | IL-6 induced ([1]; up to, doses to 20 μg/ml) | dose from which active (nitric oxide production) (murine macrophages)
4 | 0.12 pg/mL | 0.18 pg/mL | 0.23 pg/mL | 0.31 pg/mL | 0.68 pg/mL | 1.66 pg/mL | 3.64 pg/mL | able to activate IL-8 secretion via TLR2 | CCCCCCCCCCCC(=O)O[C@H](CCCCCCCCCCC)CC(=O)N[C@H]1[C@H](OC[C@H]2O[C@H](OCCOP(=O)(O)O)[C@H](NC(=O)C[C@H](O)CCCCCCCCCCC)[C@@H](O)[C@@H]2O)O[C@H](CO)[C@@H](OP(=O)(O)O)[C@@H]1O [compound 33, 2-(Phosphonooxy)ethyl-2-Deoxy-6-O-[2-deoxy-4-O-(dihydroxyphosphoryl)-2-[(R)-3-dodecanoyloxytetradecanoylamino]-β-D-glucopyranosyl]-2-[(R)-3-hydroxytetradecanoylamino]-α-D-glucopyranoside] | 210 nM |  |  |  |  |  |  | 
5 | 0.19 pg/mL | 0.20 pg/mL | 0.24 pg/mL | 0.25 pg/mL | 0.39 pg/mL | 0.88 pg/mL | 2.02 pg/mL | able to activate IL-8 secretion via TLR2 | CCCCCCCCCCCC(=O)O[C@H](CCCCCCCCCCC)CC(=O)N[C@H]1[C@H](OC[C@H]2O[C@H](OCCC)[C@H](NC(=O)C[C@H](O)CCCCCCCCCCC)[C@@H](O)[C@@H]2O)O[C@H](CO)[C@@H](OP(=O)(O)O)[C@@H]1O [compound 17, Propyl-2-Deoxy-6-O-[2-deoxy-4-O-(dihydroxyphosphoryl)-2-[(R)-3-dodecanoyloxytetradecanoylamino]-β-D-glucopyranosyl]-2-[(R)-3-hydroxytetradecanoylamino]-α-D-glucopyranoside] | 1600 nM | 171.6 pg/mL | 447.6 pg/mL | 752.4 pg/mL | able to induce IL-6 secretion | able to induce high levels of nitric oxide |  | 
